Test results from patent US20180344680A1, “COMPOSITIONS AND METHODS FOR TREATMENT, AMELIORATION, AND PREVENTION OF DIABETES-RELATED SKIN ULCERS” (THE ARIZONA BOARD OF REGENTS ON BEHALF OF THE UNIVERSITY OF …, priority 2015, published 2018).
“Also recorded” adds a separate entry of the source.

Experiments:
[1] = tested on: wounds of non-diabetic Nrf2+/+ mice; experiment: Wound closure in non-diabetic mice; assay type: in vivo, mouse; settings: non-diabetic Nrf2+/+ mice treated with SF or CA vs corn oil; up to 14 days
Excerpt: Diabetes mouse model and treatments. Nrf2^+/+ and Nrf2^-/- C57BL/6 mice were described previously (see, e.g., Jiang T, et al., Diabetes 59:850-860, 2010) and were housed and handled in accordance with the University of Arizona Institutional Animal Care policies. The STZ-induced diabetic model was previously described (see, e.g., Zheng H, et al., Diabetes 60:3055-3066, 2011) and only 8 week old male mice were included in this study. Briefly, three weeks after STZ injections, fasting glucose levels (FGL, 4 h fast) were measured using the AlphaTRAK system (Abbott Laboratory, North Chicago, Ill.) and mice with a FGL higher than or equal to 250 mg/dL were considered diabetic and included in the study (see, e.g., FIG. 2A and FIG. 3A for a detailed timeline). The mice (n=5-8) were then allocated randomly to each of the indicated treatment groups and received corn oil (control), 12.5 mg/kg SF or 50 mg/kg CA intraperitoneally every two days until skin tissues were harvested. One week after the treatments, the mice were anesthetized, their backs were shaved and cleaned. Two wounds were made with a sterile 6 mm skin biopsy punch (Health link, Jacksonville, Fla.) and covered with 3M Tegaderm pads. […] Gross wound closure was quantified by ImageJ software, and wound healing was expressed as the percentage of the original wound area that had healed. […]

[2] = tested on: HaCaT cells; experiment: Cell growth (xCELLigence) of HaCaT cells; assay type: cell-based, human; settings: 5 μmol/L SF or 20 μmol/L CA, up to 72 h
Protocol: (§1) Human immortalized keratinocytes HaCaT were obtained from the Arizona Cancer Center (see, e.g., Boukamp P, et al., J Cell Biol 106:761-771, 1988). Cells were grown in Dulbecco's modified Eagle's medium (DMEM) containing low glucose (LG, 5.5 mmol/L) and 10% fetal bovine serum (FBS) in an incubator at 37° C. with 5% CO2. For the experiments, the cells were starved in serum-free LG DMEM for 24 h, then either maintained in LG DMEM or switched to high glucose (HG, 25 mmol/L) DMEM for 2 days (see, e.g., Zheng H, et al., Diabetes 60:3055-3066, 2011; Lan C C, et al., Br J Dermatol 159:1103-1115, 2008). For the treatments, the cells were dosed with 5 μmol/L SF or 20 μmol/L CA.
siRNA transfections. […]
Reactive oxygen species (ROS) measurement, cell proliferation and apoptosis. ROS were measured in HaCaT cells using DCF. […] Then, 48 h later, the cells were switched into fresh medium containing 10 μg/mL DCF, incubated 30 min, and fluorescence intensity was measured by flow cytometry. The rate of cell proliferation was measured by two methods (see, e.g., Ren D, et al., Proc Natl Acad Sci USA 108:1433-1438, 2011): 1) detection of Ki67 using indirect immunofluorescence as described previously (see, e.g., Lau A, et al., Mol Cell Biol 30:3275-3285, 2010); and 2) using the xCELLigence system (Roche). […]

[3] = tested on: HaCaT cells; experiment: In vitro wounding assay (PDMS barrier) of keratinocyte migration; assay type: cell-based, human; settings: HG HaCaT cells; 5 μmol/L SF or 20 μmol/L CA; up to 72 h
Protocol: as §1
siRNA transfections. HaCaT cells were transfected with either a non-specific, control small interfering RNA (Con-siRNA, #1027281, Qiagen, Valencia, Calif.) or an NRF2-specific siRNA (#S100657937) using the HiPerfect transfection reagent (Qiagen) according to the manufacturer's instructions. Briefly, cells were maintained in LG or HG DMEM for 2 days and then transfected with either control or NRF2 siRNA for migration, proliferation, and apoptosis experiments. For the ROS detection, cells were maintained in LG DMEM and transfected with either control or NRF2 siRNA; 24 h later, the cells were switched to HG DMEM and treated as indicated.
In vitro wounding assay. […]

SMILES	wound closure [1]	inhibition of cell proliferation by HG (cell growth) [2]	in vitro wound closure (cell migration) [3]
O=CC=Cc1ccccc1 [CA, Cinnamaldehyde]	No statistically significant differences; also recorded: do not show accelerated wound closure	partly counteracted	significantly accelerated wound closure in HG cells
C[S@@+]([O-])CCCCN=C=S [SF, L-sulforaphane]	No statistically significant differences; also recorded: do not show accelerated wound closure	partly counteracted	significantly accelerated wound closure in HG cells
